Values quoted from earlier work in patent publication US12357549B2, “Method for dyeing keratinous material, comprising the use of an organosilicon compound, a dyeing compound, a sealing reagent, and a pre-treatment agent” (Henkel AG & Co. KGaA, priority 2021, dated 2025).

Details: 25° C.

Structure (SMILES)	solubility in water	other results
CCN(Cc1cccc(S(=O)(=O)[O-])c1)c1ccc(C(=C2C=CC(=[N+](CC)Cc3cccc(S(=O)(=O)[O-])c3)C=C2)c2ccccc2S(=O)(=O)[O-])cc1.[Na+].[Na+] [Acid Blue 9]	–	water solubility: more than 20 wt %
O=S(=O)([O-])c1ccc(N=Nc2c(O)ccc3ccccc23)cc1.[Na+] [Acid Orange 7, sodium salt of 4-[(2-hydroxy-1-naphthyl)azo]benzenesulfonate]	more than 7 g/L	–
Nc1cc(S(=O)(=O)[O-])cc2cc(S(=O)(=O)[O-])c(N=Nc3ccccc3)c(O)c12.[Na+].[Na+] [Acid Red 33, disodium salt of 5-amino-4-hydroxy-3-(phenylazo)-naphthalene-2,7-disulfonate]	2.5 g/L	–
O=C([O-])c1c(Cl)c(Cl)c(Cl)c(Cl)c1-c1c2c(Br)cc(=O)c(Br)c-2oc2c(Br)c(O)cc(Br)c12.O=C([O-])c1c(Cl)c(Cl)c(Cl)c(Cl)c1-c1c2c(Br)cc(=O)c(Br)c-2oc2c(Br)c(O)cc(Br)c12.[Na+].[Na+] [Acid Red 92, disodium salt of 3,4,5,6-tetrachloro-2-(1,4,5,8-tetrabromo-6-hydroxy-3-oxoxanthen-9-yl)benzoic acid]	greater than 10 g/L	–
O=C([O-])C1=NN(c2ccc(S(=O)(=O)[O-])cc2)C(=O)C1N=Nc1ccc(S(=O)(=O)[O-])cc1.[Na+].[Na+].[Na+] (centres unmarked) [Acid Yellow 23, trisodium salt of 4,5-dihydro-5-oxo-1-(4-sulfophenyl)-4-((4-sulfophenyl)azo)-1H-pyrazole-3-carboxylic acid]	–	solubility in water (in words): readily soluble in water
